From patent US7339042B2, “Gene delivery to tumors” (University of Florida Research Foundation, Inc., priority 2003, dated 2008)
“Also recorded” adds a separate entry of the source. No end group written: not given here.

What was measured:
[1] = test system: HUVEC attachment to vitronectin coated plates; details: read-out: IC50 for inhibiting HUVEC attachment to vitronectin coated plates; cited from earlier work
Flk-1 = Flk-1 (Homo sapiens, UniProt P35968); details: cited from earlier work
rat cerebral arteries [2] = test: Cell viability staining of arteries (propidium iodide, H3334) after peptide; format: cell-based; details: after treatment with peptide
Method: No PI statined smooth muscle cell nuclei were observed.
(§1) Effect of peptide on endothelial and smooth muscle function was evaluated by histamine (0.3 and 1 μM) and bradykinin (0.5 μM) (endothelium-dependent vasodilators) and 16 and 60 mM KCl (results in dilation and constriction of arteries by hyperpolarizing and depolarizing smooth muscle, respectively). These drug solutions were added to the superfusate and applied to the arteries extraluminally for 10 to 15 min before and after intraluminal perfusion with peptides. Effects of these agents were expressed as percent change in myogenic tone (decrease for dilators and increase for constrictors). Experiments were concluded by exposing the arteries to calcium free PCSF to obtain the passive diameter. Cell viability was determined by adding H3334 (Hoechst viability stain, final concentration 1 μM) and propidium iodide (final concentration 1 μM) to the arteriograph after the peptide incubation. Fluorescent micrographs were taken of the vessels after incubation with peptides and following addition of the vital stains using Till Photonics imaging system (Martinsried, Germany).

[3] = test system: endothelial cells and smooth muscle cells of rat cerebral arteries; test: Uptake of fluorescent peptides by pressure-mounted rat cerebral arteries; format: cell-based
Method: Tat-P16 peptides were prepared and labeled with fluorescein for use in uptake studies using intact blood vessels isolated from rat brain. Blood vessels were dissected from rat brain and stabilized in an isolated perfusion system in which vessels were attached on either end to catheters and placed under physiological pressure. Following a 10 minute perfusion of the isolated vessels with flurorescent Tat-P16 peptide (1 μM), vessels were examined for uptake of the peptides. […] Within the endothelial cells, the labeled peptides were seen to be localized to the cell nuclei, further confirming uptake of the peptides by the cells.
The peptides are fairly labile in the media and approximately 50% are degraded upon incubation at 37° C. in complete media (qualitative analysis by PAGE) after 1 hour. […] Uptake of these peptides and cell killing activity was tested in a 3 dimensional organ culture using rat cerebral arteries cultured under physiological pressure and flow. A segment of the rat cerebral artery is surgically removed and placed in ringer's solution. Using a surgical stereoscope, the blood vessel is tied at either end to two cannulas on a teflon stage. Ringer's solution is perfused through the lumen of the vessel at a constant rate that maintains physiologic hydrostatic pressure. The fluorescent peptide was introduced intraluminally by perfusing a 1 μM solution of peptide through the lumen over a 10 minute period.
Rats were anesthetized by intraperitoneal injection of pentobarbital sodium (160 mg/kg) and killed by decapitation. The brain was removed and placed in an ice-cold oxygenated physiological cerebrospinal fluid (PCSF, see below for composition). Cerebellar arteries were isolated and mounted in an arteriograph as described previously (Knot and Nelson 1998). The arteriograph was placed on an inverted microscope and the artery was visualized with a monochrome CCD camera coupled to a calibrated video caliper system to measure arterial diameter. The arteries were slowly pressurized to 70 mmHg under no flow conditions using a pressure servo-null system (Living Systems Inc., Burlington Vt.), and warmed to 37° C. while being continuously superfused (5 ml/min) with PCSF bubbled with 21% O2, 5% CO2, 74% N2 (pH 7.35-7.40 in the bath). […] Myogenic tone is calculated by the following equation: Myogenic tone=(Dp−Da)/Dp×100
(§2) In some experiments, the arterial segments were denuded of endothelium by passing an air bubble through the lumen, thus exposing the smooth muscle cells to luminally administered peptides. Constriction to pressure and 60 mM KCl and dilation of arteries with myogenic tone to 16 mM KCl were used as benchmarks of functional arteries. Peptide containing PCSF was perfused intraluminally at an inlet pressure of 70 mmHg with the outlet open, for 20 min and then perfused with normal PCSF. This procedure ensures a 20 min of exposure of the arteries to the peptide.

rat cerebral arteries [4] = test: Vasodilation and vasoconstriction response of rat cerebral arteries before and after peptide; format: cell-based; details: after vs before intraluminal peptide
Method: The blood vessels were put in culture described above and perfused with buffer of the same composition as cerebrospinal fluid. Vessel diameter was measured before and after administration of each reagent. 3 μM of each peptide was perfused through for 10 minutes followed by a 10 minute wash through. Vasoconstriction and vasodilation were determined for each vessel before peptide was applied. Perfusion was continued until the vessels relaxed to their original diamter (approximately 30 minutes). The vasoconstriction and vasodilation reponse was remeasured after the 10 minute wash through. The 60 mM KCl and 16 mM KCl conditions are […], respectively. Histamine and Bradykinin are endothelial cell vasodilators.
as §2, §1

RG2 cells [5] = test: Fusion peptide cell killing, propidium iodide/FACS viability, RG2 cells; format: cell-based, rat
Method: (§3) Other experiments were performed using two glioma cell lines, i.e., T98G and RG2. 1×10^6 cells per well were incubated in 6-well plates with peptides in complete media for 1 hr. Cells were removed from the plate using a cell stripper and the percentage of viable cells was determined by staining with propidium iodide and analyzing by fluorescence activated cell sorting (FACS).
There are 4 conserved amino acid differences between the rat and human CDKI sequence. Both sequences were attached to Tat and tested for cell killing activity in the rat glioma RG2 cells. Also the effect of orientation of the Tat and CDKI domains were tested. RG2 cells were plated on 6 well plates at approximately 70% confluency. Each of the peptides was added to the wells with increasing concentration. After 1 hr, cells were removed from the plates, washed 2× with PBS, stained with propidium iodide and analyzed by FACS for viable cells.
(§4) Cell viability studies were performed by plating the cells under the same conditions as the uptake studies. Cells were incubated with fluorescent peptides for 1 hr at 37° C. The cells were removed from the plate using cell striper. They were labeled with propidium iodide and fluorescein-AM. Percent PI positive cells were determined by FACS.
The cytotoxicity of the chimeric peptides was characterized using a cell viability assay. Peptides were added to cells at a fixed concentration. After a 30-minute incubation, cells were removed from the plate, stained with propidium iodide and the % positive cells were determined by FACS (fluorescent activated cell scanning). The test conditions were Tat, ANT, Tat-P14ARF, ANT-P14ARF and P14ARF. T98G cells were tested along with RG2 cells and A172 cells.

T98G cells = test: Fusion peptide cell killing, propidium iodide/FACS viability, T98G cells; format: cell-based, human; details: 10 μM peptide, 1 hr
Method: as §3, §4

RG2 cells [6] = test: Fluorescein peptide uptake by RG2 cells, fluorescence microscopy; format: cell-based, rat
Method: (§5) For fluorescent microscopy studies cells were plated on 2 chamber cover slips at a density of 1×10^4 cells/chamber. Cells were incubated with […] peptide for 30 minutes in completed media, washed with PBS 3× and imaged using a Nikon Axiophot inverted fluorescent microscope. Images were taken using a Spot CCD camera.
Similar observations were obtained for all the peptides in another human glioblastoma cell line, T98G.

A172 cells = test: Fluorescein peptide uptake by A172 cells, fluorescence microscopy; format: cell-based, human
Method: as §5
Synthetic peptides derived from HIV Tat (Tat) and the Drosophila antennaepedia homeodomain (ANT) were tested for cell uptake by A172 cells (human glioblastomas). The peptides were labeled at the N-terminus with fluorescein. Cells were incubated with 30 uM peptide at 37° C. in serum containing media. Fluorescent micrographs were taken after 1 hr incubation at 37° C. […] The size of the peptide was increased by added an Mdm-2 binding domain derived from P14ARF. This domain was added to the C-terminus of the Tat and ANT peptides. The P14ARF domain was also placed at the N-terminus followed by the Tat peptide. All the peptides were labeled at the N-terminus with fluorescein and cell incubations similar to the Tat and ANT peptides were tested for cellular uptake. […] Both the bright field and fluorescent micrographs show altered cell morphology.

HIV = details: cited from earlier work
[7] = test system: endothelial cells and smooth muscle cells of rat cerebral arteries; test: Uptake of fluorescent peptides by pressure-mounted rat cerebral arteries; format: cell-based; details: extraluminal addition
[8] = test system: two human glioblastoma cell lines and a rat glioma cell line; test: Fluorescein peptide uptake, fluorescence microscopy, three glioma lines; format: cell-based; details: 1 μM peptide, 10^6 cells, all three cell types
Method: Synthetic peptides labeled with an N-terminal fluorescein were synthesized to test the ability of a shuttle domain to enter brain tumor and endothelial cells. The amino acid sequences for the shuttle domain was derived from HIV Tat amino acid 47 to 56 ([…] SEQ ID NO:23)(Robert-Guroff et al., J. Virol. 64:3391-3398, 1990) to which AGGG was added to the N-terminus, and the antennapedia homeodomain from drosophila (ANT) ([…] SEQ ID NO:24) (Astriab-Fisher et al., Pharm. Res., 19:744-754, 2002). A synthetic peptide (PTD-5) reported to have similar properties as Tat and ANT was also tested (Mai J. C. et al, Cancer Res. 2001; 61: 7709-7712.). Uptake was tested in two human glioblastoma cell lines and a rat glioma cell line, the latter being used for the rat brain tumor model. A 1 μM concentration of each peptide was added to 10^6 cells in a 6 well plate. […] The Tat and ANT peptides were doubled in length by the addition of […] (SEQ ID NO: 25), amino acids 42 to 55 from a human cyclin-dependent kinase inhibitor 2A (melanoma, p16, inhibits CDK4) (CDKI), transcript variant 4, mRNA (accession no. NM_058195). This domain binds MDM2 and inhibit ubiquination of P53, a tumor suppressor protein. […] Only the combination of Tat-CDKI was toxic to the cells, 65% killing for T98G and 61% killing for RG2 cells. […] Similar results were obtained with A172 cells. […]

[9] = test system: T98G cells, RG2 cells and A172 cells; test: Cell viability assay of chimeric peptides in three cell types; format: cell-based, human and rat; details: fixed concentration, 30-minute incubation
Method: Synthetic peptides labeled with an N-terminal fluorescein were synthesized to test the ability of a shuttle domain to enter brain tumor and endothelial cells. The amino acid sequences for the shuttle domain was derived from HIV Tat amino acid 47 to 56 ([…] SEQ ID NO:23)(Robert-Guroff et al., J. Virol. 64:3391-3398, 1990) to which AGGG was added to the N-terminus, and the antennapedia homeodomain from drosophila (ANT) ([…] SEQ ID NO:24) (Astriab-Fisher et al., Pharm. Res., 19:744-754, 2002). A synthetic peptide (PTD-5) reported to have similar properties as Tat and ANT was also tested (Mai J. C. et al, Cancer Res. 2001; 61: 7709-7712.). Uptake was tested in two human glioblastoma cell lines and a rat glioma cell line, the latter being used for the rat brain tumor model. A 1 μM concentration of each peptide was added to 10^6 cells in a 6 well plate. […] The Tat and ANT peptides were doubled in length by the addition of […] (SEQ ID NO: 25), amino acids 42 to 55 from a human cyclin-dependent kinase inhibitor 2A (melanoma, p16, inhibits CDK4) (CDKI), transcript variant 4, mRNA (accession no. NM_058195). […]
The cytotoxicity of the chimeric peptides was characterized using a cell viability assay. […] After a 30-minute incubation, cells were removed from the plate, stained with propidium iodide and the % positive cells were determined by FACS (fluorescent activated cell scanning). […]

[10] = intraluminal perfusion of fluorescent peptide

Flk-1, sequence (P35968 20-1356, species assumed): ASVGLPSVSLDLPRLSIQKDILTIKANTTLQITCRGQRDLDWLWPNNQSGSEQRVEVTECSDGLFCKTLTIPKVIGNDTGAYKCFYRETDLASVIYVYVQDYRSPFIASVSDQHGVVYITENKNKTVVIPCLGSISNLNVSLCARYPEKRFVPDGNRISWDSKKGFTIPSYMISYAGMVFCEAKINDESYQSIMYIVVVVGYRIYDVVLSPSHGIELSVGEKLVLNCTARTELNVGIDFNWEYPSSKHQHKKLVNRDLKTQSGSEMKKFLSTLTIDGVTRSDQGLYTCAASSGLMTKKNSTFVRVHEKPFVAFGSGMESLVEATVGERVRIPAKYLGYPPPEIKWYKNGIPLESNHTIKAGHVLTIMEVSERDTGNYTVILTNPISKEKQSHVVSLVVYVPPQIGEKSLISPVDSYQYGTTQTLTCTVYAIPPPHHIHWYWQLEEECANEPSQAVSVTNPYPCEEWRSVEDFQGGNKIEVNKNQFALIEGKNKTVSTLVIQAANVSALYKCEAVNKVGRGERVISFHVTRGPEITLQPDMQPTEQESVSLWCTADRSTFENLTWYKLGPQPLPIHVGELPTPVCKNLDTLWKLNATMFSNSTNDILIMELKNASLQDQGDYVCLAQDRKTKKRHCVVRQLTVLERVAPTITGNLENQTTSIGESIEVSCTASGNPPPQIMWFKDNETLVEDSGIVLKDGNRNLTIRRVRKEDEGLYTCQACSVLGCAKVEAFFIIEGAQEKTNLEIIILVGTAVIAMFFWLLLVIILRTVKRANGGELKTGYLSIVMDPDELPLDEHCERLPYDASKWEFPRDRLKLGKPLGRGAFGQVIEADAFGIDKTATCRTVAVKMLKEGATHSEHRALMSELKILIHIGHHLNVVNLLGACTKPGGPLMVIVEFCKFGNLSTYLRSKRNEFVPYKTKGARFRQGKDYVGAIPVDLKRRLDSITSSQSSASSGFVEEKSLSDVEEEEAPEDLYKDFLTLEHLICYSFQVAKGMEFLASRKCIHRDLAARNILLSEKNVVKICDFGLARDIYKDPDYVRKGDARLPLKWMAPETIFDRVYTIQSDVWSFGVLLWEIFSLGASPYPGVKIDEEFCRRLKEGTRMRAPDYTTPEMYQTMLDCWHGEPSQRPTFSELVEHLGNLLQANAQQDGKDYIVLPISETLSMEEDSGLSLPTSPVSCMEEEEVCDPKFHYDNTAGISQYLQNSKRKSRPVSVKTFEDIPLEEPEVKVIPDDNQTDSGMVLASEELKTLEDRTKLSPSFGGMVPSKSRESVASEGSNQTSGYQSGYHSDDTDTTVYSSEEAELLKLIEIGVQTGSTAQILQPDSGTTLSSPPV

## CDMRGDMFC [αvβ3 integrin binding peptide]
[1]
  IC50: 10 µM

## HTMYYHHYQHHL [Flk-1 binding peptide]
Flk-1
  IC50: ~100 µM

## AGGGYGRKKRRQRRRMGRRFVVTVRIRRT [Tat-rat P14ARF]
Rat cerebral arteries [2]
  propidium iodide staining of blood vessels: only the endothelial cells were affected
[3]; after intraluminal exposure
  morphology of the endothelial cells: morphology of the endothelial cells was altered
[3]; [10]
  labeling/uptake by endothelial cells: restriction of labeling to the endothelial cells
Rat cerebral arteries [4]
  endothelium-dependent dilation to histamine and bradykinin: inhibition of vasodilation
  smooth muscle response to 60 and 16 mM KCl: no effect

## MVRRFLVTLRIRRA [P14ARF]
RG2 cells [5]; 10 μM peptide, 1 hr
  % killing (toxicity): 22%
RG2 cells [5]; 30-minute incubation
  reduction in cell viability: 22%
Rat cerebral arteries [4]
  endothelium-dependent dilation to histamine and bradykinin: responsive to all stimuli
  smooth muscle response to 60 and 16 mM KCl: responsive to all stimuli
T98G cells
  % killing (toxicity): no toxicity

## RQIKIWFQNRRMKWKK-MVRRFLVTLRIRRA [ANT-P14ARF]
RG2 cells [6]
  staining pattern (cell uptake): intracellular punctate staining

## MVRRFLVTLRIRRAAGGGYGRKKRRQRRR [P14ARF-Tat]
RG2 cells [5]; dose response 1 μM to 10 μM
  IC50: 3 µM
A172 cells; 30 uM peptide, 1 hr, 37° C., serum containing media
  staining pattern (cell uptake): nuclear staining
A172 cells; A172 cells, 1-hour incubation
  cell density: reduced cell density
RG2 cells [6]
  cell density: reduced cell density compared to TatP14ARF
  staining pattern (cell uptake): nuclear staining

## RRNalCYCitKdEPYRCitCR [CXCR4 peptide]
HIV
  IC50 for inhibiting HIV: in the nM range

## RQIKIWFQNRRMKWKK [ANT, membrane permeability domain alone, control peptide]
[3]; [10]
  labeling/uptake by endothelial cells: restriction of labeling to the endothelial cells; also recorded: cytoplasmic staining of the endothelial cells
  labeling/uptake by smooth muscle cells: did not label the smooth muscle cells
[7]
  labeling of smooth muscle cells: able to label the smooth muscle cells
A172 cells; 30 uM peptide, 1 hr, 37° C.
  fluorescent intensity (degree of cell uptake): greater for the ANT peptide than the Tat peptide
[8]
  fluorescence labeling of cells (uptake): stained the cytoplasm
[9]
  cells killed: No impact on cell viability
